Experimental data: PubChem BioAssay AID2060604 (Molecular Pharmacology Branch, DTP, NCI, 2025)
pIC50: −log10 of the molar value.

Tested on: 379773-124-R-J2-PDC complex spheroids, viability % test/control
Assay: Anticancer human tumor 379773-124-R-J2-PDC patient-derived endometrial carcinoma cell line growth inhibition [CLK]
Conditions: for pIC50: curve of first compound; for viability, T/C: stronger effect = lower value
Outline: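 Multi-cell-type spheroids combined patient-derived tumor cells with HUVEC endothelial cells and human mesenchymal stem cells. Paired agents were dosed in half-log steps down from about clinical Cmax, or from 10 microM where Cmax was unknown.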

[1] = second compound 0.0316 µM, first compound 0.0316 µM
[2] = second compound 0.0316 µM, first compound 0.1 µM
[3] = second compound 0.0316 µM, first compound 0.316 µM
[4] = second compound 0.0316 µM, first compound 1 µM
[5] = second compound 0.1 µM, first compound 0.0316 µM
[6] = second compound 0.1 µM, first compound 0.1 µM
[7] = second compound 0.1 µM, first compound 0.316 µM
[8] = second compound 0.1 µM, first compound 1 µM
[9] = second compound 0.316 µM, first compound 0.0316 µM
[10] = second compound 0.316 µM, first compound 0.1 µM
[11] = second compound 0.316 µM, first compound 0.316 µM
[12] = second compound 0.316 µM, first compound 1 µM
[13] = second compound 1 µM, first compound 0.0316 µM
[14] = second compound 1 µM, first compound 0.1 µM
[15] = second compound 1 µM, first compound 0.316 µM
[16] = second compound 1 µM, first compound 1 µM
[17] = second compound 3.16 µM, first compound 0.0316 µM
[18] = second compound 3.16 µM, first compound 0.1 µM
[19] = second compound 3.16 µM, first compound 0.316 µM
[20] = second compound 3.16 µM, first compound 1 µM
[21] = second compound 10 µM, first compound 0.0316 µM
[22] = second compound 10 µM, first compound 0.1 µM
[23] = second compound 10 µM, first compound 0.316 µM
[24] = second compound 10 µM, first compound 1 µM
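Further: compound exposure lasted seven days before the viability readout.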
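Wherever viability, T/C is given: 100% = DMSO vehicle control wells.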

## CC(=O)O[C@H]1C(=O)[C@@]2(C)[C@H]([C@H](OC(=O)c3ccccc3)[C@]3(O)C[C@H](OC(=O)[C@H](O)[C@@H](NC(=O)c4ccccc4)c4ccccc4)C(C)=C1C3(C)C)[C@]1(OC(C)=O)CO[C@@H]1C[C@@H]2O + CN1CCN(c2cc(C(=O)Nc3cc4cc(-c5cnn(C)c5)ccc4cn3)ccn2)CC1
Second compound 0.0316 µM
  pIC50: > 7.50
Second compound 0.1 µM
  pIC50: > 7.50
Second compound 0.316 µM
  pIC50: > 7.50
Second compound 1 µM
  pIC50: > 7.50
Second compound 3.16 µM
  pIC50: > 7.50
Second compound 10 µM
  pIC50: > 7.50
[1]
  viability, T/C: 7.03%
[2]
  viability, T/C: 7.96%
[3]
  viability, T/C: 7.37%
[4]
  viability, T/C: 6.76%
Second compound 0.0316 µM, first compound 3.16 µM
  viability, T/C: 6.08%
Second compound 0.0316 µM, first compound 10 µM
  viability, T/C: 6.39%
[5]
  viability, T/C: 5.82%
[6]
  viability, T/C: 7.72%
[7]
  viability, T/C: 7.07%
[8]
  viability, T/C: 6.35%
Second compound 0.1 µM, first compound 3.16 µM
  viability, T/C: 6.66%
Second compound 0.1 µM, first compound 10 µM
  viability, T/C: 8.15%
[9]
  viability, T/C: 5.25%
[10]
  viability, T/C: 5.87%
[11]
  viability, T/C: 5.15%
[12]
  viability, T/C: 5.39%
Second compound 0.316 µM, first compound 3.16 µM
  viability, T/C: 7.05%
Second compound 0.316 µM, first compound 10 µM
  viability, T/C: 7.94%
[13]
  viability, T/C: 0.07%
[14]
  viability, T/C: 0.08%
[15]
  viability, T/C: 0.18%
[16]
  viability, T/C: 1.42%
Second compound 1 µM, first compound 3.16 µM
  viability, T/C: 0.21%
Second compound 1 µM, first compound 10 µM
  viability, T/C: 0.05%
[17]
  viability, T/C: 0.21%
[18]
  viability, T/C: 0.13%
[19]
  viability, T/C: 2.68%
[20]
  viability, T/C: 0.06%
Second compound 3.16 µM, first compound 3.16 µM
  viability, T/C: 0.46%
Second compound 3.16 µM, first compound 10 µM
  viability, T/C: 0.1%
[21]
  viability, T/C: 0.05%
[22]
  viability, T/C: 1.24%
[23]
  viability, T/C: 0.14%
[24]
  viability, T/C: 0.91%
Second compound 10 µM, first compound 3.16 µM
  viability, T/C: 0.48%
Second compound 10 µM, first compound 10 µM
  viability, T/C: 0.46%

## CCc1c2c(nc3ccc(O)cc13)-c1cc3c(c(=O)n1C2)COC(=O)[C@]3(O)CC + CN1CCN(c2cc(C(=O)Nc3cc4cc(-c5cnn(C)c5)ccc4cn3)ccn2)CC1
Second compound 0.0316 µM
  pIC50: > 8.50
Second compound 0.1 µM
  pIC50: > 8.50
Second compound 0.316 µM
  pIC50: > 8.50
Second compound 1 µM
  pIC50: > 8.50
Second compound 3.16 µM
  pIC50: > 8.50
Second compound 10 µM
  pIC50: > 8.50
Second compound 0.0316 µM, first compound 0.00316 µM
  viability, T/C: 14.1%
Second compound 0.0316 µM, first compound 0.01 µM
  viability, T/C: 8.12%
[1]
  viability, T/C: 3.67%
[2]
  viability, T/C: 2.7%
[3]
  viability, T/C: 0.99%
[4]
  viability, T/C: 0.98%
Second compound 0.1 µM, first compound 0.00316 µM
  viability, T/C: 10.7%
Second compound 0.1 µM, first compound 0.01 µM
  viability, T/C: 7.87%
[5]
  viability, T/C: 5.68%
[6]
  viability, T/C: 1.93%
[7]
  viability, T/C: 1%
[8]
  viability, T/C: 0.47%
Second compound 0.316 µM, first compound 0.00316 µM
  viability, T/C: 10.6%
Second compound 0.316 µM, first compound 0.01 µM
  viability, T/C: 9.07%
[9]
  viability, T/C: 3.15%
[10]
  viability, T/C: 1.65%
[11]
  viability, T/C: 0.34%
[12]
  viability, T/C: 0.08%
Second compound 1 µM, first compound 0.00316 µM
  viability, T/C: 0.11%
Second compound 1 µM, first compound 0.01 µM
  viability, T/C: 0.18%
[13]
  viability, T/C: 0.1%
[14]
  viability, T/C: 0.34%
[15]
  viability, T/C: 0.05%
[16]
  viability, T/C: 0.05%
Second compound 3.16 µM, first compound 0.00316 µM
  viability, T/C: 0.07%
Second compound 3.16 µM, first compound 0.01 µM
  viability, T/C: 0.08%
[17]
  viability, T/C: 0.13%
[18]
  viability, T/C: 0.73%
[19]
  viability, T/C: 0.09%
[20]
  viability, T/C: 0.08%
Second compound 10 µM, first compound 0.00316 µM
  viability, T/C: 0.45%
Second compound 10 µM, first compound 0.01 µM
  viability, T/C: 0.11%
[21]
  viability, T/C: 0.2%
[22]
  viability, T/C: 1.89%
[23]
  viability, T/C: 0.75%
[24]
  viability, T/C: 0.18%
